Laboratory results as given in patent US8992977B2, “Multi-day delivery of biologically active substances” (Samos Pharmaceuticals, LLC, priority 2007, dated 2015).
Like-named read-outs stand apart in the source and are kept apart here.

Key:
[1] = cited from earlier work; for t1/2: carrier drug, as repeated in the examples
[2] = cited from earlier work; for short half life from triacylglycerols (TAG) / following half life from triacylglycerols (TAG): bi-exponential pattern; for short half life from triacylglycerols (TAG): first phase; for following half life from triacylglycerols (TAG): second phase
[3] = cited from earlier work
[4] = cited from earlier work; remark: listed apart in the source
[5] = Hydrolysis of ethinyl estradiol (EE) from conjugate of Example 16; type: physicochemical; settings: for Ethinyl Estradiol Released (%): 9:4 ethanol/0.05 M phosphate buffer pH 7.4, 37° C.
Procedure: Estradiol conjugate (33.5 mg, 0.039 mmol), prepared from Conjugate 1 as described in Example 16, was dissolved in 58 mL of a 9:4 ethanol/0.05 M aqueous phosphate buffer (pH 7.4) mixture, and the solution was shaken in a 37° C. incubator for 9 days. Six 8 mL aliquots were collected at 1-, 2-, 3-, 5-, 7-, and 9-day intervals. Estradiol release was quantified by adding 33 μL of a 0.09 M solution of butylated hydroxytoluene (BHT) in deuterochloroform as an internal standard, then comparing integrals of 1H NMR signals corresponding to the steroid and the internal standard.

[6] = Hydrolysis of ethinyl estradiol (EE) from conjugate 1; type: physicochemical; settings: for Ethinyl Estradiol Released (%): 2:1 ethanol/0.05 M phosphate buffer pH 7.4, 37° C.
Procedure: Estradiol conjugate 1 (23.0 mg, 0.027 mmol) was dissolved in 48 mL of a 2:1 ethanol/0.05 M aqueous phosphate buffer (pH 7.4) mixture, and the solution was shaken in a 37° C. incubator for 6 days. Estradiol release was determined by integration of ^1H NMR signals obtained from three 8.5 mL aliquots, which were collected at 2-, 3-, and 6-day intervals.

[7] = Calculation of pharmacokinetic profile of orally delivered 3 1/2 day or 7 day pill; settings: k 0.42
From the text: Since the release of EE is from a non-constant activity source, i.e., the concentration of the conjugate is continuously decreasing, the release of EE from the conjugate will obey a first order release and thus be proportional to the concentration of conjugate at any time t. These equations have been solved and the final equation describing the release of the EE is given by the equation Mt/M0=1−1/exp(kt), where Mt is the amount of EE released from the conjugate, M0 is the total amount of EE, Mt/M0 is the percent EE released from the conjugate, k is a proportionality constant and t is the time. The constant k was calculated from the data shown in example 17 to be 0.42. […] The pharmacokinetic profiles obtained using pills containing 150 (7 day pill) and 110 (3½ day pill) microgram equivalents of EE are shown in FIG. 1A and FIG. 1B.
As was shown in Example 18, the release from the EE conjugate is governed by the equation Mt/M0=1−1/exp(kt). The value of k was 0.42 as determined from the data of example 17. As discussed in the detailed description of illustrative embodiments, the release can be controlled by many different factors. To obtain half the release rate of EE as compared with that of conjugate of example 17, a value of k=0.22 was used. Using k=0.22 and the pharmacokinetic parameters shown in Example 18, the graphs shown in FIG. 2A and FIG. 2B were obtained. […]

[8] = cited from earlier work; remark: listed apart in the source
[9] = The Pharmacological Basis of Therapeutics 10th ed., Physicians Desk Reference 58th Ed.
[10] = Table 2, acid moiety, water, temperature 24.7
[11] = carotenoids, J. of Nutrition 2001, 131, 2096
[12] = Table 1, alcohol moiety, 60% acetone, temperature 25
[13] = Table 1, alcohol moiety, 70% acetone, temperature 24.7
[14] = Table 2, acid moiety, 70% acetone, temperature 24.7
[15] = Table 1, alcohol moiety, 60% acetone, temperature 1
[16] = Physicians Desk Reference p. 3372, 57 ed., 2003

Compound: CC(=O)OC[C@H]1O[C@@H]([S-])[C@H](OC(C)=O)[C@@H](OC(C)=O)[C@@H]1OC(C)=O.CCP(CC)CC.[Au+] [Auranofin]
- half life ([1]; in vivo): 408 to 600 h

Compound: CCC1(c2ccccc2)C(=O)NC(=O)NC1=O [Phenobarbital]
- half life [1, 9]: 99 h

Compound: CNCCC=C1c2ccccc2CCc2ccccc21 [Nortriptyline]
- half life [1, 9]: 31 h

Compound: CC/C=C\C/C=C\C/C=C\C/C=C\C/C=C\C/C=C\CCC(=O)O [DHA, docosahexaenoic acid]
- short half life from triacylglycerols (TAG) [2]: less than a day
- following half life from triacylglycerols (TAG) [2]: several days

Compound: CCN(CCO)CCCC(C)Nc1ccnc2cc(Cl)ccc12 (stereo not drawn) [Hydroxychloroquine]
- half life [1, 9]: 1220 h

Compound: CCOC(=O)C[N+](C)(C)C [(CH3)3N^+CH2COOC2H5]
- kOH [3, 10]: 98.0 M⁻¹ s⁻¹

Compound: CCOC(=O)CSC [CH3SCH2COOC2H5]
- kOH [3, 10]: 0.92 M⁻¹ s⁻¹

Compound: CC1=C(/C=C/C(C)=C/C=C/C(C)=C/C=C/C=C(C)/C=C/C=C(C)/C=C/C2=C(C)C[C@@H](O)CC2(C)C)C(C)(C)CCC1 [beta cryptoxanthin]
- half life [4, 11]: 936 h

Compound: Ivermectin
- half life [1, 9]: 57 h

Compound: C#C[C@]1(O)CC[C@H]2[C@@H]3CCc4cc(OC(=O)CCC(=O)OC(c5cc(C(F)(F)F)nc6c(C(F)(F)F)cccc56)C5CCCCN5)ccc4[C@H]3CC[C@@]21C (stereo partly drawn) [Conjugate of Example 16]
- rate of hydrolysis compared with Conjugate 1 [5]: slower than that of Conjugate 1
- Ethinyl Estradiol Released (%) ([5]; Day 1): 30%
- Ethinyl Estradiol Released (%) ([5]; Day 2): 50%
- Ethinyl Estradiol Released (%) ([5]; Day 3): 63%
- Ethinyl Estradiol Released (%) ([5]; Day 5): 77%
- Ethinyl Estradiol Released (%) ([5]; Day 7): 88%
- Ethinyl Estradiol Released (%) ([5]; Day 9): 98%

Compound: CC(=O)Oc1ccccc1 [CH3COOC6H5]
- kOH [3, 12]: 0.537 M⁻¹ s⁻¹

Compound: CCOC(=O)CCl [ClCH2COOC2H5]
- kOH ([3]; Table 2, acid moiety, Water, μ = 0.2, temperature 24.7): 33.2 M⁻¹ s⁻¹

Compound: CCOC(C)=O [CH3COOC2H5]
- kOH [3, 13]: 0.047 M⁻¹ s⁻¹
- kOH [3, 14]: 0.047 M⁻¹ s⁻¹

Compound: CC1=C[C@H](O)CC(C)(C)[C@H]1/C=C/C(C)=C/C=C/C(C)=C/C=C/C=C(C)/C=C/C=C(C)/C=C/C1=C(C)C[C@@H](O)CC1(C)C [lutein]
- half life [4, 11]: 1820 h

Compound: O=c1[nH]c2ccccc2n1C1CCN(CCCC(c2ccc(F)cc2)c2ccc(F)cc2)CC1 [Pimozide]
- half life [1, 9]: 111 h

Compound: CCOC(=O)CN [H3N^+CH2COOC2H5]
- kOH [3, 10]: 60.5 M⁻¹ s⁻¹

Compound: CC1=C(/C=C/C(C)=C/C=C/C(C)=C/C=C/C=C(C)/C=C/C=C(C)/C=C/C2=C(C)CCCC2(C)C)C(C)(C)CCC1 [beta carotene]
- half life [4, 11]: 888 h

Compound: C#C[C@]1(O)CC[C@H]2[C@@H]3CCc4cc(OC(=O)CCC(=O)OC(c5cc(C(F)(F)F)nc6c(C(F)(F)F)cccc56)C5CCCCN5C(=O)OC(C)(C)C)ccc4[C@H]3CC[C@@]21C (stereo partly drawn) [conjugate 1]
- period over which ethinyl estradiol is released ([6]; 2:1 ethanol/phosphate buffer pH 7.4, 37° C.): over a several day period
- Ethinyl Estradiol Released (%) ([6]; Day 2): 57%
- Ethinyl Estradiol Released (%) ([6]; Day 3): 67%
- Ethinyl Estradiol Released (%) ([6]; Day 6): 100%
- proportionality constant k of first order release Mt/M0=1−1/exp(kt) ([6]; calculated from the data of example 17): 0.42
- peak to valley ratio ([7]; 1 pill every 7 days, 150 microgram equivalents of EE): 5.1
- peak to valley ratio (Css.max to Css.min) ([7]; pill once every 3½ days, 110 microgram equivalents of EE): less than two

Compound: Gold sodium thiomalate
- half life [1, 9]: 600 h

Compound: C#C[C@]1(O)CC[C@H]2[C@@H]3CCC4=CC(=O)CC[C@@H]4[C@H]3CC[C@@]21CC [levonorgestrel]
- plasma concentrations ([8]; ovulation suppression use): about 1 microgram per ml

Compound: Infliximab
- half life ([1]; in vivo): 228 h

Compound: CO[C@H]1C[C@@H]2CC[C@@H](C)[C@@](O)(O2)C(=O)C(=O)N2CCCC[C@H]2C(=O)O[C@H]([C@H](C)C[C@@H]2CC[C@@H](O)[C@H](OC)C2)CC(=O)[C@H](C)/C=C(\C)[C@@H](O)[C@@H](OC)C(=O)[C@H](C)C[C@H](C)/C=C/C=C/C=C/1C [Sirolimus]
- half life [1, 9]: 62 h
- t1/2 [1]: 62 h

Compound: CCOC(=O)C[S+](C)[O-] (stereo not drawn) [CH3SOCH2COOC2H5]
- kOH [3, 10]: 4.20 M⁻¹ s⁻¹

Compound: CC1=CCCC(C)(C)[C@H]1/C=C/C(C)=C/C=C/C(C)=C/C=C/C=C(C)/C=C/C=C(C)/C=C/C1=C(C)CCCC1(C)C [alpha carotene]
- half life [4, 11]: 1080 h

Compound: CC(=O)Oc1cccc(C)c1
- kOH [3, 15]: 0.09 M⁻¹ s⁻¹

Compound: CC(C)=CCC\C(C)=C/C=C/C(C)=C/C=C/C(C)=C/C=C/C=C(C)/C=C/C=C(C)/C=C/C=C(\C)CCC=C(C)C [5-Z lycopene]
- half life ([4]; in vivo): 220 h

Compound: CCCC(=O)OCC [nC3H7COOC2H5]
- kOH [3, 14]: 0.088 M⁻¹ s⁻¹

Compound: CNCCCC1c2ccccc2C=Cc2ccccc21 [Protriptyline]
- half life [1, 9]: 78 h
- t1/2 [1]: 76 h

Compound: CC(C)=CCC/C(C)=C/C=C/C(C)=C/C=C/C(C)=C/C=C/C=C(C)/C=C/C=C(C)/C=C/C=C(\C)CCC=C(C)C [E lycopene]
- half life ([4]; in vivo): 120 h

Compound: COC(C)=O [CH3COOCH3]
- kOH [3, 13]: 0.108 M⁻¹ s⁻¹

Compound: COc1ccc2cc(CCC(C)=O)ccc2c1 [Nabumetone]
- half life [1, 9]: 23 h

Compound: CC/C=C\C/C=C\C/C=C\C/C=C\C/C=C\CCCC(=O)O [EPA, eicosapentaenoic acid]
- mean half life in cholesteryl esters (CE) ([2]; Br. J. Nutr. 1999): 78.5 h
- short half life from triacylglycerols (TAG) [2]: less than a day
- following half life from triacylglycerols (TAG) [2]: several days

Compound: CNCCC(Oc1ccc(C(F)(F)F)cc1)c1ccccc1 (stereo not drawn) [Fluoxetine]
- half life [1, 9]: 53 h
- t1/2 [1]: 53 h

Compound: CCOC(=O)C(CC)CC [(C2H5)2CHCOOC2H5]
- kOH [3, 14]: 0.000083 M⁻¹ s⁻¹

Compound: OC(c1cc(C(F)(F)F)nc2c(C(F)(F)F)cccc12)C1CCCCN1 (stereo not drawn) [Mefloquine]
- half life [1, 9]: 480 ± 96 h

Compound: CCOC(=O)C(C)(C)C [(CH3)3CCOOC2H5]
- kOH [3, 14]: 0.00022 M⁻¹ s⁻¹

Compound: CCCOC(C)=O [CH3COO(CH2)2CH3]
- kOH [3, 13]: 0.027 M⁻¹ s⁻¹

Compound: CC(=O)Oc1ccc([N+](=O)[O-])cc1
- kOH [3, 15]: 2.2 M⁻¹ s⁻¹

Compound: CC1=C(/C=C/C(C)=C/C=C/C(C)=C/C=C/C=C(C)/C=C/C=C(C)/C=C/C2=C(C)CC(O)CC2(C)C)C(C)(C)CC(O)C1 (stereo not drawn) [zeaxanthin]
- half life [4, 11]: 912 h

Compound: CCCCC/C=C\C/C=C\CCCCCCCC(=O)O [linoleic acid]
- t1/2 ([2]; essential fatty acids as drug carriers): 24 h

Compound: C#C[C@]1(O)CC[C@H]2[C@@H]3CCc4cc(O)ccc4[C@H]3CC[C@@]21C [ethinyl estradiol]
- CL/F [8, 16]: 8.1 mL/min/kg
- half life [8, 16]: 18.7 h

Compound: CC(=O)OCc1ccc([N+](=O)[O-])cc1
- kOH [3, 12]: 0.269 M⁻¹ s⁻¹

Compound: CC(=O)OC(C)(C)C [CH3COOC(CH3)3]
- kOH [3, 13]: 0.00027 M⁻¹ s⁻¹

Compound: CC(=O)OC(C)C [CH3COOCH(CH3)2]
- kOH [3, 13]: 0.007 M⁻¹ s⁻¹

Compound: CC(C)=CCC/C(C)=C/C=C/C(C)=C/C=C/C(C)=C/C=C/C=C(C)/C=C/C=C(C)/C=C/C=C(\C)CCC=C(C)C [lycopene]
- half life [4, 11]: 624 h

Compound: CN(C)CCOc1ccc(/C(=C(/CCCl)c2ccccc2)c2ccccc2)cc1 [Toremifene]
- half life [1, 9]: 148 h
